Measured values reported in US5358936A, “Anionic furanose derivatives, methods of making and using the same” (Gordon; Paul, priority 1991, dated 1994).
“Also recorded” adds a separate entry of the source. Where a name gives a salt, the structure may show the parent alone. Read-outs that look alike come from different tables or passages of the source.

Key:
rat paw [1] = assay: Post-ischemic reperfusion paw swelling (Example 22); assay type: in vivo, Sprague Dawley male rats; settings: for Swelling change as a result of treatment: 30 minutes; for Post-ischemic reperfusion 30 minute paw swelling, Mn ± SE: P < 0.02; for % Change as a result of treatment / Paw swelling, Mean ± SE: another study; for Paw swelling, Mean ± SE: i.p. 45 minutes prior
Excerpt: This important disease model is used to evaluate aspects of tissue injury that occur in heart attack, or myocardial infarction, and stroke. Under these conditions, a significant period of injury can occur after blood flow has been restored, during the period of reperfusion.
To produce ischemia, blood flow to the left hind foot was largely interrupted by application of a tourniquet made up of two size 18 rubber bands wound eight times around the leg just behind the heel. […] Both application and removal of tourniquet were carried out under ether anesthesia. Injury was equated with organ swelling, which was assayed by measurement of the dorsoventral foot diameter with a Schnelltaster caliper, just before application of the tourniquet and at various times following tourniquet removal, during the reperfusion period.
Rats employed were Sprague Dawley males, weighing 240-280 grams. Drug comparisons were made here employing measurements 30 minutes into the reperfusion period. The widely studied drug allopurinol, a xanthine oxidase inhibitor and a free radical scavenging agent, used in the treatment of gout, and widely used to suppress experimental post-ischemic reperfusion injury was used as an experimental treatment standard. In studies below, allopurinol and all new drugs were given intraperitoneally 45-60 minutes prior to application of the tourniquet. Data are reported as the mean swelling (Mn)±standard error (SE). […] Group n is 5 or 6.
In another study, drug comparisons were made at various times after the reperfusion period. In this study, control and drug treatment groups were as above.

rat paw [2] = settings: in vivo; cited from earlier work
platelet aggregation = assay: Mouse tail bleeding time (Example 31 B); assay type: in vivo; settings: for % Increase in bleeding time / Mouse Tail Bleeding Time: 100 mg/kg intraperitoneal; for Mouse Tail Bleeding Time: control 37.0 ± 5.25
Procedure: A study of mouse tail bleeding time, which is an in vivo model of platelet aggregation and thrombosis was also conducted. In this widely employed model, bleeding was induced by a standardized transection of the tail tip and subsequent bleeding time was determined after vertical immersion of the tails in isotonic saline at 37° C. for thirty seconds.
Two compounds of the invention, Compound III and Compound VIII, were assessed as compared with aspirin, in another study of mouse tail bleeding time. In this study, the mice were housed in a standard animal room rather than in a noisy small animal isolator. Also, all three drugs were administered by an intraperitoneal route, rather than a subcutaneous route for Compound III and an intraperitoneal route for aspirin.

stomach ulcers = assay: Gastric ulcers in rats with corona virus infection treated with indomethacin (Example 26); assay type: in vivo, rat; settings: indomethacin 30 mg/kg oral
Excerpt: Corona virus is a non-lethal upper respiratory viral pathogen that not infrequently infects rat colonies. It is a type of rodent coryza or catarrh, the equivalent of a disease that falls somewhere between human influenza and a severe common cold. The animals of this study suffered from this condition, a circumstance which was evident by observation, and which was confirmed by virological diagnosis at the Biological Resources Laboratory of the University of Illinois at Chicago. Since stress is a common component of peptic ulcer development in both animals and man, it was concluded that this feature of the status of these experimental animals rendered them appropriate for an ulcer study.
In this study, animals were not food deprived and were divided into treatment groups such that 15 rats received 30 mg/kg indomethacin alone (in water by oral gavage), 14 rats received indomethacin plus an injection of 25 mg/kg cimetidine subcutaneously, and 7 rats received indomethacin plus subcutaneous injection of 17.5 mg/kg of Compound III.
All animals were sacrificed by ether euthanasia 24 hours later and their stomachs evaluated for ulcer pathology. In this study ulcers were not hemorrhagic. Results are shown below as the average number of stomach ulcers per stomach.

peritoneal neutrophils = assay: In vitro neutrophil chemotaxis toward zymosan-activated rat serum (Example 24); assay type: cell-based, mouse; settings: for IC50: 6 h, read-out: ID50 (molar concentration that inhibited chemotaxis by 50 percent)
Procedure: In vitro neutrophil chemotaxis studies were carried out by standard methods, as follows:
Mice were injected with complete Freund's adjuvant (CFA) and peritoneal cells, principally neutrophjls (>90 percent), were reproved from the mice 24 hours thereafter. Blind-well chemotactic chambers (Nucleopore Corp., Pleasanton, Calif.) were utilized.
Medium (RPMI 1640 plus 10 percent fetal calf serum) or medium plus 20 percent zymosan-activated rat serum (ZAS) was added to the lower compartment of each chamber. A nucleopore filter (8 μm pore size) was placed between compartments and 1×10^5 peritoneal neutrophils (above) suspended in medium were placed in the upper compartment. Chambers were incubated for six hours, after which time the filters were removed and stained with Giemsa stain. The number of cells on the lower surface of the filter was counted under a microscope. Treatment groups were assayed in duplicate.
The studies were carried out more specifically as follows:
Zymosan (Sigma Chemical Co., St. Louis, Mo.) was mixed with rat serum for one hour at 37° C. at 1 milligram (mg)/ml. The resulting chemoattractant composition was filtered, aliquotted and stored frozen at -70° C. prior to use.
The above chemoattractant composition was used as a 20 percent v/v solution in medium.
The chemotaxis chambers were arranged as follows:
The chambers were incubated at 37° C. for six hours, after which the chambers were dismantled, and the filters removed and treated as follows:
a) The filters were immersed in Giemsa stain diluted 1:50 for 30-45 minutes.
b) The stained filters were rinsed gently in distilled water for 3-5 minutes.
c) The stained, rinsed filters were air dried without blotting.
Several compounds described herein and control compounds ("drug", above) were examined at various concentrations, in duplicate. The molar concentration of a drug that inhibited the observed chemotaxis by 50 percent, defined as the ID50 value, was determined as shown below.

[3] = test system: gastric submucosal thrombi; assay: Inhibition of gastric submucosal thrombi (Example 30); assay type: in vivo, rat; settings: 10 mg/kg IV
Procedure: Thrombosis was induced in rat stomach submucosal blood vessels by the following two-step treatment. First, 1.5 ml of 100 percent ethanol was administered by oral gavage. This produces non-specific injury to tissues and blood vessels of the gastric mucosa. Second, 1.0 mg of adenosine diphosphate (ADP) in 1.0 ml of H2 O, was administered by oral garage 15 minutes after the administration of ethanol. Administration of ADP biases the organ response towards thrombosis by inducing platelet aggregation.
The pathology generated is typically a disseminated pattern of multiple small thrombi, observed on examination of the gastric mucosa, 1-3 hours after ethanol administration. These thrombi are dark red, dilated, thrombosed submucosal blood vessel segments, each being approximately 1 mm thick and 2 to 6 mm long.
In these studies, animals were treated with drug or centrol at one hour prior to ethanol administration. Thrombosis was induced as discussed before, and animals were sacrificed at 1.5 hours after ethanol administration. Focal thrombi were then counted. In this study, n=9-10.

[4] = Dissolution and buffering of suspensions, HCl titration (Example 16)
Excerpt: Note that the term "apparent pK" in this context is meant to encompass the maximization of buffering that come both from solid-state dissolution and its titration as solute.

[5] = Mus musculus, Neutrophil, read-out: Percent Inhibition of chemotaxis
[6] = Mus musculus, Neutrophil, 20 percent zymosan-activated rat serum, six hours, 37° C.
[7] = Mus musculus, Neutrophil, dose 1.0 μg/ml, read-out: Percent Inhibition of chemotaxis
[8] = Mus musculus, Neutrophil, dose 0.1 μg/ml, read-out: Percent Inhibition of chemotaxis
[9] = Mus musculus, Neutrophil, dose 10.0 μg/ml, read-out: Percent Inhibition of chemotaxis

SMILES: Oc1ncnc2[nH]ncc12 [Allopurinol, reference compound]
- Swelling change as a result of treatment (rat paw [1]; study B, i.p., Compound III 0.2 mg/kg, allopurinol 20 mg/kg): -35%
- Post-ischemic reperfusion 30 minute paw swelling, Mn ± SE (rat paw [1]; study B, i.p., Compound III 0.2 mg/kg, allopurinol 20 mg/kg, control 20.5 ± 0.76): 13.3 ± 0.56 0.1 mm
- effect on edema that develops following removal of the tourniquet, in words (rat paw [2]): suppress the edema
- near toxic level at which allopurinol is utilized in reperfusion injury (rat paw [2]): 20 to 30 mg/kg

SMILES: CC(=O)Oc1ccccc1C(=O)O [Aspirin, reference compound]
- % Increase in bleeding time (platelet aggregation): 97%
- Mouse Tail Bleeding Time (platelet aggregation): 72.88 ± 10.9 s

SMILES: CN/C(=N/CCSCc1nc[nH]c1C)NC#N [Cimetidine, reference compound]
- Percent Inhibition of ulcer frequency (stomach ulcers; cimetidine 25 mg/kg s.c. or Compound III 17.5 mg/kg s.c.): 58%
- Ulcer Frequency per stomach, Mn ± SE (stomach ulcers; cimetidine 25 mg/kg s.c. or Compound III 17.5 mg/kg s.c. where given, P<0.02): 1.07 ± 0.25 Per Stomach

SMILES: O=S(=O)(O)OC[C@@H](OS(=O)(=O)O)[C@H]1O[C@H](O)[C@H](O)[C@H]1OS(=O)(=O)O [Compound II, 3,5,6-Tri-O-sulfo-α-D-glucofuranose, tripotassium salt]
- IC50 (peritoneal neutrophils; Mus musculus, Neutrophil): 30 µM
- inhibition at 0.1 µg/mL (peritoneal neutrophils; [5]): 2.5%
- inhibition at 1 µg/mL (peritoneal neutrophils; [5]): 45.5%
- inhibition at 10 µg/mL (peritoneal neutrophils; [5]): 48.5%

SMILES: CCCCC1(CCCC)O[C@H]2O[C@H]([C@@H](COS(=O)(=O)O)OS(=O)(=O)O)[C@H](OS(=O)(=O)O)[C@H]2O1 [Compound IV, 1,2-O-(5-Nonylidene)-3,5,6-tri-O-sulfo-α-D-glucofuranose, tripotassium salt]
- IC50 (peritoneal neutrophils; [6]): > 10 µM
- inhibition at 1 µg/mL (peritoneal neutrophils; [7]): 44%
- Percent Inhibition of chemotaxis (peritoneal neutrophils; dose 1.0 μg/ml, tripotassium salt): 28.5%
- Post-ischemic reperfusion 30 minute paw swelling, Mn ± SE (rat paw [1]; study D, 0.2 mg/kg i.p., control 11.4 ± 0.51): 21.2 ± 2.25 0.1 mm
- Swelling change as a result of treatment (rat paw [1]; study D, 0.2 mg/kg i.p., edema enhancement): +86%

SMILES: CCC1(CC)O[C@H]2O[C@H]([C@@H](COS(=O)(=O)O)OS(=O)(=O)O)[C@H](OS(=O)(=O)O)[C@H]2O1 [Compound V, 1,2-O-(3-Pentylidene)-3,5,6-tri-O-sulfo-α-D-glucofuranose, tripotassium salt]
- IC50 (peritoneal neutrophils; [6]): 2 µM
- inhibition at 0.1 µg/mL (peritoneal neutrophils; [8]): -8%
- inhibition at 1 µg/mL (peritoneal neutrophils; [7]): 62%
- inhibition at 10 µg/mL (peritoneal neutrophils; [9]): 101%

SMILES: O=S(=O)(O)OC[C@H]1O[C@H](OS(=O)(=O)O)[C@H](O)[C@@H](OS(=O)(=O)O)[C@@H]1O [Compound VII, 1,3,6-Tri-O-sulfo-α-D-glucopyranose, tripotassium salt, reference compound]
- IC50 (peritoneal neutrophils; Mus musculus, Neutrophil): < 100 µM
- inhibition at 0.1 µg/mL (peritoneal neutrophils; [5]): 8%
- inhibition at 1 µg/mL (peritoneal neutrophils; [5]): 23%
- inhibition at 10 µg/mL (peritoneal neutrophils; [5]): 29%

SMILES: CC1(C)O[C@H]2O[C@H]([C@@H](COS(=O)(=O)O)OS(=O)(=O)O)[C@@H](OS(=O)(=O)O)[C@H]2O1 [Compound VIII, 1,2-O-(2-Propylidene)-3,5,6-tri-O-sulfo-α-D-allofuranose, tripotassium salt]
- paw swelling less than control (rat paw [1]; 60 minutes of reperfusion time, i.p.): 71%
- % Change as a result of treatment (rat paw [1]; reperfusion time 20 mins., i.p.): -46%
- Paw swelling, Mean ± SE (rat paw [1]; reperfusion time 20 mins., control 8.20 ± 1.02): 4.60 ± 0.40 0.1 mm
- % Change as a result of treatment (rat paw [1]; reperfusion time 30 mins., i.p.): -64%
- Paw swelling, Mean ± SE (rat paw [1]; reperfusion time 30 mins., control 6.60 ± 0.87): 2.40 ± 0.51 0.1 mm
- Drug Effect on thrombi [3]: -38.1%
- Mean Thrombi per Stomach, ±SE ([3]; ethanol + ADP, control 10.60 ± 1.42): 6.56 ± 1.60 per Stomach
- % Increase in bleeding time (platelet aggregation): 278%
- Mouse Tail Bleeding Time (platelet aggregation): 139.88 ± 28.23 s
- potency relative to aspirin in prolonging mouse tail bleeding time / suppressing platelet aggregation (platelet aggregation; first study: aspirin 75 mg/kg IP, Compound III s.c. or oral, second study: all IP 100 mg/kg, tripotassium salt): more effective than aspirin; also recorded: more potent than aspirin in the suppression of platelet aggregation

SMILES: C[C@@H]1C[C@H]2[C@@H]3CCC4=CC(=O)C=C[C@]4(C)[C@@]3(F)[C@@H](O)C[C@]2(C)[C@@]1(O)C(=O)CO [Dexamethasone]
- effect on edema that develops following removal of the tourniquet, in words (rat paw [2]): effective only when administered more than three hours in advance

SMILES: CCCCC[C@H](O)/C=C/[C@H]1[C@H](O)CC(=O)[C@@H]1C/C=C\CCCC(=O)O [PGE2, Prostaglandin E2, reference compound]
- IC50 (peritoneal neutrophils; [6]): 0.1 µM
- inhibition at 0.01 µg/mL (peritoneal neutrophils; Mus musculus, Neutrophil, dose 0.01 μg/ml, read-out: Percent Inhibition of chemotaxis): 71%
- inhibition at 0.1 µg/mL (peritoneal neutrophils; [8]): 91.5%
- inhibition at 0.2 µg/mL (peritoneal neutrophils; Mus musculus, Neutrophil, dose 0.2 μg/ml, read-out: Percent Inhibition of chemotaxis): 71.5%
- relative activity in inhibiting neutrophil chemotaxis, in words (peritoneal neutrophils; in vitro): about equally as active as Compound III

SMILES: C[C@]12C=CC(=O)C=C1CC[C@@H]1[C@@H]2C(=O)C[C@@]2(C)[C@H]1CC[C@]2(O)C(=O)CO [Prednisone, reference compound]
- IC50 (peritoneal neutrophils; [6]): > 50 µM
- inhibition at 0.1 µg/mL (peritoneal neutrophils; [8]): 15.5%
- inhibition at 1 µg/mL (peritoneal neutrophils; [7]): 16%
- inhibition at 10 µg/mL (peritoneal neutrophils; [9]): 20%

SMILES: CC(=O)Nc1ccc(C=Cc2ccc(N=C=S)cc2S(=O)(=O)O)c(S(=O)(=O)O)c1 [SITS, 4-acetamido-4'-isothiocyano-stilbene-2,2'-disulfonate, reference compound]
- IC50 (peritoneal neutrophils; Mus musculus, Neutrophil): > 20 µM
- inhibition at 0.1 µg/mL (peritoneal neutrophils; [5]): 18.5%
- inhibition at 1 µg/mL (peritoneal neutrophils; [5]): -12.5%
- inhibition at 10 µg/mL (peritoneal neutrophils; [5]): 48.5%

SMILES: [OH][Al]([OH])[OH] [aluminum trihydroxide, reference compound]
- HCl needed to lower pH of suspension to below pH 2.00 ([4]; 50 mg in 20 ml distilled water, initial pH 4.44 (aluminum trihydroxide), 4.91 (sucralfate), 4.23 (Compound III:Al), water alone 0.30): 0.90 meq
- buffering action, in words ([4]; HCl titration): only minor buffering power relative to distilled H2 O, but no pK

SMILES: O=C(O)Cc1ccccc1Nc1c(Cl)cccc1Cl [diclofenac]
- effect on edema that develops following removal of the tourniquet, in words (rat paw [2]): not effective at any time
